Converted amounts (≈) assume the structure as drawn. Where two headings read alike, the source gives them in different places.
Columns and labels:
L. donovani amastigotes = assay: INMAC assay: intramacrophage L. donovani in differentiated THP-1 cells; assay type: cell-based, Leishmania donovani; conditions: for loss of potency: INMAC, relative to compound 4; for EC50 / IC50: Leishmania donovani; for IC50: THP-1, read-out: LdInMac pIC50 (converted)
Method: (§1) Intramacrophage L. donovani Assay. This assay was conducted as previously described, except for […]

THP-1 cells = assay: THP-1 host cell read-out of the INMAC assay; assay type: cell-based; conditions: for EC50 / IC50: Homo sapiens
Method: as §1

[1] = Kinetic aqueous solubility by CLND; assay type: physicochemical
Method: We had successfully used these criteria in the hit to lead stage to identify compounds for in vivo proof-of-concept studies in another program, which subsequently led to the identification of preclinical candidate DDD853651/GSK3186899 active against CRK12.[7] […] A pharmacokinetic (PK) study was thus performed, dosed at 10 mg/kg po and 3 mg/kg iv. […] With the limited knowledge of the PK/PD drivers for the treatment of VL, we considered this to be a suitable profile for the progression of 4 into a previously reported mouse efficacy model of VL,[6],[7],[17],[18] where it was dosed twice daily at 50 mg/kg ip in order to further maximize exposure and give the best chance of achieving proof-of-concept.
(§2) Intramacrophage L. donovani Assay. This assay was conducted as previously described, except for compound exposure time, which was 96 h instead of 72 h.4
(§3) Intrinsic Clearance. This assay was conducted as previously described.5 Aqueous Solubility. This assay was conducted as previously described.6
(§4) FaSSIF Solublity. This assay was conducted as previously described.5,7
(§5) In vivo Mouse Efficacy Studies. In vivo studies were carried out as previously described, with minor modifications.7 Briefly: Control drug used was Miltefosine (30 mg/kg orally, twice daily for 5 days), vehicle used was 10% (v/v) dimethyl sulfoxide (DMSO), 40% polyethylene glycol 400, and 50% deionized water (10 Ml/kg orally, twice daily for 5 days) and mice were treated with test compound intraperitoneally (50 mg/kg twice daily for 5 days). 5
(§6) All regulated procedures on living animals were carried out under the authority of a project license issued by the Home Office under the Animals (Scientific Procedures) Act 1986, as amended in 2012 (and in compliance with EU Directive EU/2010/63). Infected animals had access to food and water ad libitum and were housed under a 12 hour light/dark photoperiod. Animals used in these experiments were female NMRI and Balb/c mice (Harlan, UK).
(§7) Test compound DDD01008714 was dosed orally (P.O.) at 10 mg free base/kg (dose volume 10 mL/kg; dose vehicle: 10% (vol/vol) dimethyl sulfoxide (DMSO), 40% polyethylene glycol 400 (PEG400) and 50% deionized water) to female NMRI mice (n = 3) or intravenously (I.V.) at 3 mg free base/kg (dose volume 5 mL/kg; dose vehicle: 10% (vol/vol) dimethyl sulfoxide (DMSO) and 90% Saline) to female Balb/c mice (n = 3). Blood samples (10 μL) where taken from the tail vein of […]

[2] = FaSSIF (fasted state simulated intestinal fluid) solubility; assay type: physicochemical
Method: as §2, §3, §4, §5, §6, §7

[3] = Mouse liver microsomal intrinsic clearance; assay type: in vitro ADME; conditions: for Mouse CLi: mouse liver microsomes; for Cli (mouse, ml/min/g): supplementary csv
Method: as §2, §3, §4, §5, §6, §7

[4] = THP-1, Table 2, at least three replicates, SD ≤0.4, read-out: INMAC (pEC50) (converted)
[5] = THP-1, Table 2, read-out: THP-1 (pEC50) (converted)
[6] = THP-1, supplementary csv, read-out: THP1 pIC50 (converted)
[7] = Table 2, kinetic, CLND, read-out: Aq. solubility
[8] = supplementary csv, read-out: Aqueous Solubility
[9] = THP-1, Table 5, at least three replicates, SD ≤0.4, read-out: INMAC pEC50 (converted)
[10] = Table 5, at least three replicates, SD ≤0.4
[11] = THP-1, Table 5, read-out: THP-1 pEC50 (converted)
[12] = Table 5, kinetic, CLND, read-out: Aq. solubility
[13] = THP-1, Table 6, at least three replicates, SD ≤0.4, read-out: INMAC pEC50 (converted)
[14] = THP-1, Table 6, read-out: THP-1 pEC50 (converted)

Compound | loss of potency (L. donovani amastigotes) | EC50 (L. donovani amastigotes; [4]) | EC50 (THP-1 cells; [5]) | IC50 (THP-1 cells; [6]) | Mouse CLi ([3]; Table 2) | Cli (mouse, ml/min/g) [3] | IC50 (L. donovani amastigotes) | INMAC pEC50 (L. donovani amastigotes; [10]) | Mouse CLi ([3]; Table 5) | other results
O=C(Nc1cc(-c2cn3cc(N4CCOCC4)cnc3n2)ccc1F)N1CCCC1 [Compound 5, N-(2-Fluoro-5-(6-morpholinoimidazo[1,2-a]pyrimidin-2-yl)phenyl)pyrrolidine-1-carboxamide] | > 10 fold | 15.8 µM | > 50.1 µM | > 50.1 µM | 0.9 mL/min/g | 0.9 mL/min/g | – | – | – | solubility [1, 7]: 256 µM (≈ 105 µg/mL); solubility [1, 8]: 260 µM (≈ 107 µg/mL); solubility at 4 h ([2]; pH 6.5, Table 2): 51 µM (≈ 20.9 µg/mL)
O=C(Nc1cccc(-c2cn3cc(N4CCOCC4)cnc3n2)c1)N1CCCC1 [Compound 6, N-(3-(6-Morpholinoimidazo[1,2-a]pyrimidin-2-yl)phenyl)pyrrolidine-1-carboxamide] | > 10 fold | 12.6 µM | > 50.1 µM | > 50.1 µM | 0.8 mL/min/g | 0.8 mL/min/g | – | – | – | –
COc1ccc(NC(=O)N2CCCC2)cc1-c1cn2cc(N3CCOCC3)cnc2n1 [Compound 7, N-(4-Methoxy-3-(6-morpholinoimidazo[1,2-a]pyrimidin-2-yl)phenyl)pyrrolidine-1-carboxamide] | > 10 fold | > 50.1 µM | > 50.1 µM | > 50.1 µM | <0.5 mL/min/g | <0.5 mL/min/g | > 50.1 µM | – | – | solubility [1, 7]: ≥ 425 µM; solubility [1, 8]: ≥ 430 µM; solubility at 4 h ([2]; pH 6.5, Table 2): 83 µM (≈ 35.1 µg/mL)
COc1ccc(-c2cn3cc(N4CCOCC4)cnc3n2)cc1NC(=O)N1CCCC1 [Compound 8, N-(2-Methoxy-5-(6-morpholinoimidazo[1,2-a]pyrimidin-2-yl)phenyl)pyrrolidine-1-carboxamide] | > 10 fold | 20 µM | > 50.1 µM | > 50.1 µM | 1.4 mL/min/g | 1.4 mL/min/g | – | – | – | solubility [1, 7]: ≥ 380 µM; solubility ([2]; Table 2): > 100 µM; solubility at 4 h ([2]; pH 6.5, Table 2): 265 µM (≈ 112 µg/mL); solubility ([2]; supplementary csv): 270 µM (≈ 114 µg/mL)
O=C(Nc1cccc(-c2nc3ccccc3o2)c1)c1ccco1 [Compound 14] | – | – | – | > 50.1 µM | – | 50 mL/min/g | > 50.1 µM | – | – | EC50 (L. donovani amastigotes; THP-1, Table 3, at least three replicates, SD ≤0.4, read-out: INMAC (pEC50) (converted)): > 50.1 µM; INMAC pEC50 (L. donovani amastigotes; Table 3, at least three replicates, SD ≤0.4): no activity; EC50 (THP-1 cells; THP-1, Table 3, read-out: THP-1 (pEC50) (converted)): > 50.1 µM; Mouse CLi ([3]; Table 3): 50 mL/min/g
O=C(Nc1cccc(-c2cc3ncc(-c4ccccc4)cn3n2)c1)N1CCCC1 [Compound 16, N-(3-(6-Phenylpyrazolo[1,5-a]pyrimidin-2-yl)phenyl)pyrrolidine-1-carboxamide] | – | – | – | > 50.1 µM | – | 3.6 mL/min/g | > 50.1 µM | inactive | 3.6 mL/min/g | EC50 (L. donovani amastigotes; [9]): > 50.1 µM; EC50 (THP-1 cells; [11]): > 50.1 µM
O=C(Nc1cccc(-c2cc3cc(-c4ccccc4)cnc3[nH]2)c1)N1CCCC1 [Compound 17, N-(3-(5-Phenyl-1H-pyrrolo[2,3-b]pyridin-2-yl)phenyl)pyrrolidine-1-carboxamide] | – | – | – | > 50.1 µM | – | 1.7 mL/min/g | > 50.1 µM | inactive | 1.7 mL/min/g | EC50 (L. donovani amastigotes; THP-1, read-out: INMAC pEC50 (converted)): > 50.1 µM; EC50 (THP-1 cells; THP-1, read-out: THP-1 pEC50 (converted)): > 50.1 µM; solubility [1, 12]: 3 µM (≈ 1.15 µg/mL)
O=C(Nc1ccc(F)c(-c2cc3nc(N4CCOCC4)cnc3[nH]2)c1)N1CCCC1 [Compound 18, N-(4-Fluoro-3-(2-morpholino-5H-pyrrolo[2,3-b]pyrazin-6-yl)phenyl)pyrrolidine-1-carboxamide] | – | – | – | – | – | – | > 50.1 µM | inactive | 10 mL/min/g | EC50 (L. donovani amastigotes; [9]): > 50.1 µM; IC50 (THP-1 cells; THP-1, read-out: THP1 pIC50 (converted)): > 50.1 µM; EC50 (THP-1 cells; [11]): > 50.1 µM; solubility [1, 12]: 135 µM (≈ 55.4 µg/mL); solubility [1, 8]: 10 µM (≈ 4.1 µg/mL)
Cn1c(-c2cc(NC(=O)N3CCCC3)ccc2F)cc2cc(N3CCOCC3)cnc21 [Compound 19, N-[4-Fluoro-3-(1-methyl-5-morpholino-pyrrolo[2,3-b]pyridin-2-yl)phenyl]pyrrolidine-1-carboxamide] | – | – | – | > 50.1 µM | – | 2.4 mL/min/g | > 50.1 µM | inactive | 2.4 mL/min/g | EC50 (L. donovani amastigotes; [9]): > 50.1 µM; EC50 (THP-1 cells; [11]): > 50.1 µM
CN1CCOCC1c1cnc2nc(-c3cc(NC(=O)N4CCCC4)ccc3F)ccn12 (stereo not shown) [Compound 33, N-(4-Fluoro-3-(3-(4-methylmorpholin-3-yl)imidazo[1,2-a]pyrimidin-7-yl)phenyl)pyrrolidine-1-carboxamide] | – | – | – | 50.1 µM | – | 3.8 mL/min/g | – | – | – | EC50 (L. donovani amastigotes; [13]): 5.01 µM; EC50 (THP-1 cells; [14]): 50.1 µM; solubility at 4 h ([2]; pH 6.5, Table 6): 2340 µM (≈ 994 µg/mL); solubility ([2]; supplementary csv): > 1000 µM; Mouse CLi ([3]; Table 6): 3.8 mL/min/g
O=C1CN(c2cnc3nc(-c4cc(NC(=O)N5CCCC5)ccc4F)ccn23)CCN1 [Compound 37, N-(4-Fluoro-3-(3-(3-oxopiperazin-1-yl)imidazo[1,2-a]pyrimidin-7-yl)phenyl)pyrrolidine-1-carboxamide] | – | – | – | > 50.1 µM | – | 1.1 mL/min/g | > 50.1 µM | – | – | EC50 (L. donovani amastigotes; [13]): > 50.1 µM; EC50 (THP-1 cells; [14]): > 50.1 µM; solubility at 4 h ([2]; pH 6.5, Table 6): 815 µM (≈ 345 µg/mL); solubility ([2]; supplementary csv): 820 µM (≈ 347 µg/mL); Mouse CLi ([3]; Table 6): 1.1 mL/min/g
N-(3-(7-Phenylimidazo[1,2-b][1,2,4]triazin-3-yl)phenyl)pyrrolidine-1-carboxamide [Compound 27] | – | – | – | – | – | 3.3 mL/min/g | – | 5.9 | 3.3 mL/min/g | LdInMac pIC50 (L. donovani amastigotes; supplementary csv): 5.9; THP-1 pEC50 (THP-1 cells; Table 5): <4.3; THP1 pIC50 (THP-1 cells; supplementary csv): <4.3; solubility ([2]; Table 5): 3.0 µM
